Values of other authors in patent publication EP0467998B1, “PEPTIDES FROM RETINOBLASTOMA GENE PRODUCTS AND ANTIBODIES THERETO” (BAYLOR COLLEGE OF MEDICINE, priority 1989, dated 1990).

Settings: individual amino acid, Hopp and Woods (1981)

Row | Hydrophilicity Value | SMILES
1 | 3.0 | N[C@@H](CC(=O)O)C(=O)O [Asp]
2 | -1.0 | N[C@@H](CS)C(=O)O [Cys]
3 | -0.5 | N[C@@H](Cc1c[nH]cn1)C(=O)O [His]
4 | -2.5 | N[C@@H](Cc1ccccc1)C(=O)O [Phe]
5 | 0.3 | N[C@@H](CO)C(=O)O [Ser]
6 | -3.4 | N[C@@H](Cc1c[nH]c2ccccc12)C(=O)O [Trp]
7 | -2.3 | N[C@@H](Cc1ccc(O)cc1)C(=O)O [Tyr]

The remaining lines, values behind:

Row | SMILES | Hydrophilicity Value
8 | C[C@H](N)C(=O)O [Ala] | -0.5
9 | N=C(N)NCCC[C@H](N)C(=O)O [Arg] | 3.0
10 | NC(=O)C[C@H](N)C(=O)O [Asn] | 0.2
11 | N[C@@H](CCC(=O)O)C(=O)O [Glu] | 3.0
12 | NCC(=O)O [Gly] | 0.0
13 | CC[C@H](C)[C@H](N)C(=O)O [Ile] | -1.8
14 | NCCCC[C@H](N)C(=O)O [Lys] | 3.0
15 | CSCC[C@H](N)C(=O)O [Met] | -1.3
16 | O=C(O)[C@@H]1CCCN1 [Pro] | 0.0
17 | C[C@@H](O)[C@H](N)C(=O)O [Thr] | -0.4
18 | CC(C)[C@H](N)C(=O)O [Val] | -1.5
